Consider 23 molecules from PMC8512853, “Synthesis, Bioactivity, Pharmacokinetic and Biomimetic Properties of Multi-Substituted Coumarin Derivatives” (Molecules, 2021).

Data set [1] is described as follows: Hydroxyl (HO•) free radical scavenging assay (competition with DMSO). The text has this: The hydroxyl (HO^•) free radical is considered as the most toxic and reactive radical among the ROS, leading to cellular or protein damage, membrane destruction, and even to cellular death when encountered in excess concentration. In this context, the evaluation of the hydroxyl radical scavenging activity of the coumarin analogues was essential. Hydroxyl radicals are mainly produced by the Haber–Weiss reaction in the presence of iron or copper ions. In this protocol, iron-EDTA solution, which catalyzes the autooxidation of ascorbic acid, was used as the hydroxyl radical generation system. In general, the hydroxyl radicals formed oxidize the DMSO to form formaldehyde. The reaction involves the initial interaction of DMSO with the hydroxyl radicals to give methyl radicals, with the final product being formaldehyde, which is determined by Nash method. The intensity of the yellow solution formed was measured at 412 nm against a reagent blank.
For the evaluation of hydroxyl radical scavenging ability, the protocol described by Kontogiorgis et al. was used. In short, each sample was tested in quadruplicate (A, B, C, D). For A and B, 10 μL of coumarin analogs diluted in DMSO (100 mM) were added; for C and D were the respective blanks. Standards (containing DMSO solution) and blanks were all prepared in a similar manner; to the latter an equal amount (10 µL) of solvent was added instead of the tested analogues. According to the protocol described by Klein et al., standard solutions of EDTA, FeCl3, ascorbic acid, and buffer solution (pH 7.4) were also added to each of the tested mixtures. All mixtures were incubated at 37 °C for 30 min, and then 1 mL of Nash solution and […] of CCl3COOH solution were added. After a 10min incubation at 60 °C to allow the formation of the yellow mixture, the absorbance was measured at […].
The results were calculated as performance percentages in relation to the respective standards and blanks according to the following Equation (4):(4) % Scavenging ability= Mean OD(A+B)−Mean OD(C+D)/Mean OD(A+B)

Data set [2] is described as follows: MTT cell viability assay, HaCaT. Format: cell-based, human. The settings on record: human, HaCaT cells, 100 μΜ, 24 h. The text has this: The MTT assay (3- [4,5-dimethylthiazol-2-yl] -2,5 diphenyl tetrazole) is based on the conversion of MTT to formazan crystals by living cells, which determines mitochondrial activity. Since for most cell populations total mitochondrial activity is related to the number of viable cells, this assay is widely used to measure the in vitro cytotoxic effects of drugs on various cell lines or primary cells. The principle of the MTT assay is that for most viable cells the mitochondrial activity is stable, and therefore, an increase or decrease in the number of viable cells is linearly related to mitochondrial activity. The mitochondrial activity of the cells is reflected by the conversion of the MTT tetrazole salt to formazan crystals (bright purple), which can be solubilized (in this protocol with DMSO) for homogeneous measurement. Thus, any increase or decrease in the number of viable cells can be detected by measuring the formazan concentration reflected in the optical density (OD) measurement at 540 nm with a reference absorption of 720 nm.
All the compounds were tested for their cytotoxic activity against blank and control samples in the human epidermal keratinocyte line (HaCaT), at the concentration of 100 μΜ, and the results are presented in Table 4.
(§1) This protocol was used for the evaluation of cell viability and all the cell lines. It must be noted that this assay describes the count of cells that remain alive after the treatment. For the experimental procedure a standard solution of MTT 1mg/mL in PBS was prepared which after filtration ([…] filter (Millipore, Carrigtwohill, Ireland)) was stored in the dark (4–8 °C) until use. In a 96-well plate, HaCaT, A549 and A375 cells were seeded in a number of 30 × 10^4 cells/well for each evaluation series respectively. The cells were incubated (37 °C, 5% CO2) for 24 h, followed by the addition of the tested analogues (100 μM, diluted in DMEM) and another 24-h incubation. Next, appropriate amount of MTT was added in the tested wells and the plate returned to the incubator for the next 4 h for the formation of the formazan crystals. The formazan crystals were then redissolved by adding DMSO (100 μL) and stirring lightly for 40 min, after which the absorbance was measured in a plate reader at 540 nm with a reference absorbance of 720 nm.
(§2) All samples were tested in triplicate, against a control (only cells), blank (no cells), and positive control (100 μM standard silibinin solution was used as a “cell-killing” standard).
For orientation: Tetrazolium assays rely on reduction of a dye to a coloured formazan, in cell work by metabolically active cells.

Another data set concerns A549 cells. Put plainly: MTT cytotoxicity assay, A549. Format: cell-based, human. The following applies: 24 h; for cytotoxicity at 100 µM: Homo sapiens, A549, 100 μΜ, read-out: Cell Toxicity A549 % (100 μΜ). On the procedure: Furthermore, the coumarin compounds synthesized in this study were also evaluated for their cytotoxicity against A549 (adenocarcinomic human alveolar basal epithelial cells) and A375 (human melanoma) cell lines.
as §1, §2

`CC(=O)Oc1cccc2oc(=O)c(-c3ccccc3Cl)c(C)c12` [Compound 3a, 5-acetyloxy-3-(2-chlorophenyl)-4-methyl-chromen-2-one]: the “HO^• % (100 μΜ) scavenging” value in data set [1] was 97.0%. The viability (in general, a per cent measure of how many cells are alive, often set against a control) at 24 h, 100 μM in data set [2] amounted to 100%. The “Cell Toxicity A549 % (100 μΜ)” value in the data set with A549 cells is recorded as “no”.
Take `CC(=O)Oc1cccc2oc(=O)c(-c3cccc(Cl)c3)c(C)c12` [Compound 3b, 5-acetyloxy-3-(3-chlorophenyl)-4-methyl-chromen-2-one]: in data set [1], the “HO^• % (100 μΜ) scavenging” value was determined as 96.4%. In data set [2], the viability at 24 h, 100 μM came to 100%. Moreover, the cytotoxicity at 100 µM with A549 cells was determined as 24.6%.
`CC(=O)Oc1cccc2oc(=O)c(-c3ccc(Cl)cc3)c(C)c12` [Compound 3c, 5-acetyloxy-3-(4-chlorophenyl)-4-methyl-chromen-2-one]: the “HO^• % (100 μΜ) scavenging” value in data set [1] is reported as 30.8%. Further, the viability at 24 h, 100 μM in data set [2] worked out at 100%. In the data set with A549 cells, the “Cell Toxicity A549 % (100 μΜ)” value is “no”.
With `CC(=O)Oc1cccc2oc(=O)c(-c3ccccc3F)c(C)c12` [Compound 3d, 5-acetyloxy-3-(2-fluorophenyl)-4-methyl-chromen-2-one], the “HO^• % (100 μΜ) scavenging” value in data set [1] amounted to 100%. Besides, in data set [2], the viability at 24 h, 100 μM was determined as 100%. In the data set with A549 cells, the cytotoxicity at 100 µM stood at 7.5%.
On to `CC(=O)Oc1cccc2oc(=O)c(-c3cccc(F)c3)c(C)c12` [Compound 3e, 5-acetyloxy-3-(3-fluorophenyl)-4-methyl-chromen-2-one], for which the “HO^• % (100 μΜ) scavenging” value in data set [1] turned out to be 85.2%. Also, the viability at 24 h, 100 μM in data set [2] was determined as 96.5%. Moreover, the cytotoxicity at 100 µM in the data set on A549 cells stood at 8.9%.
Consider `CC(=O)Oc1cccc2oc(=O)c(-c3ccc(F)cc3)c(C)c12` [Compound 3f, 5-acetyloxy-3-(4-fluorophenyl)-4-methyl-chromen-2-one], for which, in data set [1], the “HO^• % (100 μΜ) scavenging” value is 71.6%. Further, in data set [2], the viability at 24 h, 100 μM came out at 100%. Further, the “Cell Toxicity A549 % (100 μΜ)” value in the data set with A549 cells is reported as “no”.
The matching figures for `CC(=O)Oc1cccc2oc(=O)c(-c3cccc(Br)c3)c(C)c12` [Compound 3g, 5-acetyloxy-3-(3-bromophenyl)-4-methyl-chromen-2-one]: 42.0%, 100% and “no”.
In the same order, the values of `CC(=O)Oc1ccc(-c2c(C)c3ccccc3oc2=O)cc1` [Compound 3h, 3-(4-acetyloxyphenyl)-4-methyl-chromen-2-one] are 100%, 96.2% and “no”.
In the same order, the values of `CC(=O)Oc1ccc(-c2c(C)c3cc(Br)ccc3oc2=O)cc1` [Compound 3i, 3-(4-acetyloxyphenyl)-6-bromo-4-methyl-chromen-2-one] are 64.5%, 100% and “no”.
As for `CC(=O)Oc1ccc(-c2c(C)c3cc(Cl)ccc3oc2=O)cc1` [Compound 3j, 3-(4-acetyloxyphenyl)-6-chloro-4-methyl-chromen-2-one], the “HO^• % (100 μΜ) scavenging” value in data set [1] is listed as 26.6%. Further, the viability at 24 h, 100 μM in data set [2] was determined as 90.5%. In addition, the “Cell Toxicity A549 % (100 μΜ)” value with A549 cells is on record as “no”.
For `CC(=O)Oc1ccc(-c2c(C)c3cc(Br)cc(Br)c3oc2=O)cc1` [Compound 3k, 3-(4-acetyloxyphenyl)-6,8-dibromo-4-methyl-chromen-2-one], the “HO^• % (100 μΜ) scavenging” value in data set [1] is recorded as 92.9%. Besides, the viability at 24 h, 100 μM in data set [2] is 100%. Besides, the “Cell Toxicity A549 % (100 μΜ)” value in the data set on A549 cells was “no”.
`CC(=O)Oc1ccc(-c2c(C)c3ccccc3oc2=O)cc1OC(C)=O` [Compound 3l, 3-(4,5-diacetyloxyphenyl)-4-methyl-chromen-2-one]: the “HO^• % (100 μΜ) scavenging” value in data set [1] was 10.7%. The same molecule showed a viability at 24 h, 100 μM in data set [2] of 100%. Further, in the data set with A549 cells, the “Cell Toxicity A549 % (100 μΜ)” value is “no”.
As for `CC(=O)Oc1ccc(-c2c(C)c3cc(Br)ccc3oc2=O)cc1OC(C)=O` [Compound 3m, 3-(4,5-diacetyloxyphenyl)-6-bromo-4-methyl-chromen-2-one], the “HO^• % (100 μΜ) scavenging” value in data set [1] worked out at 46.7%. The viability at 24 h, 100 μM in data set [2] was found to be 100%. Further, in the data set on A549 cells, the “Cell Toxicity A549 % (100 μΜ)” value is on record as “no”.
In the same order, the values of `CC(=O)Oc1ccc(-c2c(C)c3cc(Cl)ccc3oc2=O)cc1OC(C)=O` [Compound 3n, 3-(4,5-diacetyloxyphenyl)-6-chloro-4-methyl-chromen-2-one] are 65.7%, 100% and “no”.
Consider `CC(=O)Oc1ccc(-c2c(C)c3cc(Br)cc(Br)c3oc2=O)cc1OC(C)=O` [Compound 3o, 3-(4,5-diacetyloxyphenyl)-6,8-dibromo-4-methyl-chromen-2-one], for which the “HO^• % (100 μΜ) scavenging” value in data set [1] stood at 52.1%. The viability at 24 h, 100 μM in data set [2] stood at 100%. The “Cell Toxicity A549 % (100 μΜ)” value with A549 cells is on record as “no”.
Take `Cc1c(-c2ccccc2Cl)c(=O)oc2cccc(O)c12` [Compound 4a, 3-(2-chlorophenyl)-5-hydroxy-4-methyl-chromen-2-one]: the “HO^• % (100 μΜ) scavenging” value in data set [1] is 37.3%. In addition, in data set [2], the viability at 24 h, 100 μM turned out to be 100%. Also, in the data set with A549 cells, the cytotoxicity at 100 µM came out at 64.7%.
In the case of `Cc1c(-c2cccc(Cl)c2)c(=O)oc2cccc(O)c12` [Compound 4b, 3-(3-chlorophenyl)-5-hydroxy-4-methyl-chromen-2-one], the “HO^• % (100 μΜ) scavenging” value in data set [1] turned out to be 100%. This molecule registered a viability at 24 h, 100 μM in data set [2] of 100%. Further, the “Cell Toxicity A549 % (100 μΜ)” value with A549 cells is “no”.
Regarding `Cc1c(-c2ccc(Cl)cc2)c(=O)oc2cccc(O)c12` [Compound 4c, 3-(4-chlorophenyl)-5-hydroxy-4-methyl-chromen-2-one], in data set [1], the “HO^• % (100 μΜ) scavenging” value was determined as 48.5%. Also, in data set [2], the viability at 24 h, 100 μM was 63.7%. Besides, the cytotoxicity at 100 µM with A549 cells is 54.5%.
As for `Cc1c(-c2ccccc2F)c(=O)oc2cccc(O)c12` [Compound 4d, 3-(2-fluorophenyl)-5-hydroxy-4-methyl-chromen-2-one], the “HO^• % (100 μΜ) scavenging” value in data set [1] was 21.9%. In data set [2], this molecule registered a viability at 24 h, 100 μM of 100%. For the same molecule, in the data set with A549 cells, the cytotoxicity at 100 µM came to 75.7%.
The matching figures for `Cc1c(-c2cccc(F)c2)c(=O)oc2cccc(O)c12` [Compound 4e, 3-(3-fluorophenyl)-5-hydroxy-4-methyl-chromen-2-one]: 100%, 92.4% and 52.3%.
For `Cc1c(-c2ccc(F)cc2)c(=O)oc2cccc(O)c12` [Compound 4f, 3-(4-fluorophenyl)-5-hydroxy-4-methyl-chromen-2-one], the “HO^• % (100 μΜ) scavenging” value in data set [1] was determined as 99.4%. The molecule further showed a viability at 24 h, 100 μM in data set [2] of 100%. For the same molecule, the cytotoxicity at 100 µM in the data set on A549 cells stood at 62.5%.
On to `Cc1c(-c2ccc(O)cc2)c(=O)oc2ccccc12` [Compound 4h, 3-(4-hydroxyphenyl)-4-methyl-chromen-2-one], for which the “HO^• % (100 μΜ) scavenging” value in data set [1] came out at 72.2%. Also, the viability at 24 h, 100 μM in data set [2] worked out at 100%. Also, the cytotoxicity at 100 µM in the data set on A549 cells amounted to 33.7%.
In the same order, the values of `Cc1c(-c2ccc(O)cc2)c(=O)oc2ccc(Br)cc12` [Compound 4i, 6-bromo-3-(4-hydroxyphenyl)-4-methyl-chromen-2-one] are 100%, 100% and 21.7%.
